The results in this text go back to patent US20230286973A1, “PROTEIN SECRETION INHIBITORS” (KEZAR LIFE SCIENCES, priority 2020, published 2023).

Read-outs that look alike come from different tables or passages of the source. Bounds are passed on as bounds.

A short description of data set [1]: Liver Microsome Stability Assay (mouse). Particulars: mouse liver microsomes, with NADPH, 1.0 uM compound. (In general: Liver microsomes are a subcellular fraction often used to study metabolism.)
Procedure: (§1) Stability of a compound was assessed in the presence of liver microsomes from various sources—mouse, rat, monkey and human liver microsomes. 1.0 uM compound, 0.4% DMSO in 0.1 M Potassium Phosphate with 1.0 mg/mL liver microsomes, were incubated at 37° C. with or without 1 mM NADPH. The samples were quenched at 0, and 30 minutes.
Data set [2] can be described thus: Liver Microsome Stability Assay (human). The note with it: human liver microsomes, with NADPH, 1.0 uM compound.
Procedure: as §1
Data set [3] has as its system TNFα-FL/Gaussia Luciferase. The data set can be described thus: Dox Induced TNFα-FL-Gluc Assay. The class given is cell-based. Particulars: for IC50: 24 hr Dox induction, 293FRT/TO cells, read-out: 24 hr Dox Inducible TNFaFLGluc 293FRT/TO: Mean IC50; for 24 hr Dox Inducible TNFaFLGluc 293FRT/TO: TNF/PD1: ratio of TNFaFLGluc IC50 to PD1ssGluc IC50. The essentials:
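Cell line: stable Flp-In 293 T-REx, TNFα-FL(1-233)-Gaussia luciferase fusion, T-REx-inducible. Plated day -1; compounds in DMSO/media + doxycycline, 37 °C, 5% CO2. Undefined stereocentres = mixture tested.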

The subject of data set [4] is multiple myeloma cell line NCI-H929. The data set can be described thus: H929 Cell Viability Assay. It counts as cell-based, human. Particulars: Homo sapiens, NCI-H929, 48 h, NCI-H929 cells, Celltiter-Glo. The essentials: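 Cells in RPMI 1640/10% FBS; compound dilutions in DMSO/media; 48 h, 37° C, 5% CO2; CellTiter-Glo luciferase readout for viability.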
(ATP-based viability assays read luminescence as a measure of living cells.)

Data set [5] relates to PD1-ss+10aa/Gaussia Luciferase. Put plainly: Dox-Induced PD1-ss-Gluc Assay. It counts as cell-based. The note with it: 24 hr Dox induction, 293FRT/TO cells, read-out: 24 hr Dox Inducible PD1ssGluc 293FRT/TO: Mean IC50. The method, boiled down: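 Compounds were added in DMSO/media with doxycycline and incubated at 37 °C, 5% CO2, on 293 T-REx cells plated one day earlier. These cells stably express, under tetracycline-regulated control, a Gaussia luciferase fused to the PD1 signal peptide plus 10 residues. Structures drawn without stereochemistry were tested as stereoisomer mixtures.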

Data set [6] can be described thus: Liver Microsome Stability Assay (monkey). The note with it: monkey liver microsomes, with NADPH, 1.0 uM compound.
Procedure: as §1
In data set [7] the test system is IL-2-FL/Gaussia Luciferase. The data set can be described thus: Dox Induced IL2-FL-Gluc Assay. The class given is cell-based. The note with it: for IC50: 24 hr Dox induction, 293FRT/TO cells, read-out: 24 hr Dox Inducible IL2FLGluc 293FRT/TO: Mean IC50; for 24 hr Dox Inducible IL2FLGluc 293FRT/TO: IL2/PD1: ratio of IL2FLGluc IC50 to PD1ssGluc IC50. The essentials:
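Stable Flp-In 293 T-REx line, Tet-regulated IL-2 (aa 1-153)–Gaussia luciferase fusion; hygromycin/blasticidin selected. Plated day -1; compound + doxycycline added next day; 37° C, 5% CO2.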

The test system of data set [8] is multiple myeloma cell line U266B1. The data set can be described thus: U266 Cell Viability Assay. The note with it: Homo sapiens, U-266, 48 h, U266B1 cells, Celltiter-Glo. It counts as cell-based, human. The method, boiled down:
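Luminescent ATP read-out (CellTiter-Glo) after 48 h compound exposure at 37° C., 5% CO2; cells maintained in RPMI 1640/10% FBS/2 mM glutamine/pen-strep, compounds diluted in DMSO/media.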

Data set [9] is described as follows: Liver Microsome Stability Assay (rat). The note with it: rat liver microsomes, with NADPH, 1.0 uM compound.
Procedure: as §1
Data set [10] concerns HER3-ss+4aa/Gaussia Luciferase. The data set can be described thus: Dox-Induced Her3-ss-Gluc Assay. The note with it: 24 hr Dox induction, 293FRT/TO cells, read-out: 24 hr Dox Inducible Her3(ss + 4)Gluc 293FRT/TO: Mean IC50. The class given is cell-based. The method, boiled down: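 Flp-In 293 T-REx cells, stable HER3-ss+4aa/Gaussia luciferase insert, hygromycin/blasticidin selected; plated day before; compound in DMSO/media + doxycycline; 37° C., 5% CO2.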

Setting [11] is: '<=>' given where both are I.A.

Take `O=C(Nc1nc([C@H]2CCCN2c2ccc(OC3CCSCC3)cc2)cs1)c1cccn1Cc1ccnc(F)c1` [Compound A170, (R)-1-((2-fluoropyridin-4-yl)methyl)-N-(4-(1-(4-((tetrahydro-2H-thiopyran-4-yl)oxy)phenyl)pyrrolidin-2-yl)thiazol-2-yl)-1H-pyrrole-2-carboxamide]: the “Liver Microsome Stability (Multiple Species): Mouse - % Remaining after 30 min w/NADPH” value in data set [1] came to 1.37%. Also, the “Liver Microsome Stability (Multiple Species): Human - % Remaining after 30 min w/NADPH” value in data set [2] is given as 0.58%. Besides, the IC50 in data set [3] was 687 nM; in data set [5], 68.3 nM; in data set [7] it was 83.4 nM; in data set [10], 81.1 nM. Besides, the “24 hr Dox Inducible TNFaFLGluc 293FRT/TO: TNF/PD1” value in [3] was determined as 10.1. Besides, the EC50 – broadly, the concentration that produces a half-maximal response – in [4] is 5710 nM; in [8] it was greater than 25000 nM. In addition, the “Liver Microsome Stability (Multiple Species): Monkey - % Remaining after 30 min w/NADPH” value in data set [6] stood at 2.6%. Moreover, the “24 hr Dox Inducible IL2FLGluc 293FRT/TO: IL2/PD1” value in data set [7] was found to be 1.2. The “Liver Microsome Stability (Multiple Species): Rat - % Remaining after 30 min w/NADPH” value in [9] was determined as 2.02%.
`CN1CC(OC(=O)Nc2ccc(N3CCC[C@@H]3c3csc(NC(=O)c4cccn4Cc4ccnc(F)c4)n3)cc2)C1` [Compound A173, 1-methylazetidin-3-yl (R)-(4-(2-(2-(1-((2-fluoropyridin-4-yl)methyl)-1H-pyrrole-2-carboxamido)thiazol-4-yl)pyrrolidin-1-yl)phenyl)carbamate]: the “Liver Microsome Stability (Multiple Species): Mouse - % Remaining after 30 min w/NADPH” value in data set [1] is 23.8%. Further, the “Liver Microsome Stability (Multiple Species): Human - % Remaining after 30 min w/NADPH” value in data set [2] worked out at 70.3%. The IC50 in data set [3] was determined as 323 nM; in data set [5], 15.9 nM; in data set [7], 40.4 nM; in data set [10], 26.9 nM. The “24 hr Dox Inducible TNFaFLGluc 293FRT/TO: TNF/PD1” value in [3] turned out to be 20.3. Moreover, the EC50 in data set [4] was determined as 842 nM; in [8] it was 8750 nM. Further, in data set [6], the “Liver Microsome Stability (Multiple Species): Monkey - % Remaining after 30 min w/NADPH” value is reported as 54.6%. Moreover, in [7], the “24 hr Dox Inducible IL2FLGluc 293FRT/TO: IL2/PD1” value turned out to be 2.5. Further, the “Liver Microsome Stability (Multiple Species): Rat - % Remaining after 30 min w/NADPH” value in [9] turned out to be 17.4%.
For the compound `O=C(Nc1nc(/C=C/[C@H]2CCCCN2)cs1)c1cccn1Cc1ccncc1` [Compound E16, (R,E)-N-(4-(2-(piperidin-2-yl)vinyl)thiazol-2-yl)-1-(pyridin-4-ylmethyl)-1H-pyrrole-2-carboxamide], the “Liver Microsome Stability (Multiple Species): Mouse - % Remaining after 30 min w/NADPH” value in data set [1] amounted to 37%. In addition, in [2], the “Liver Microsome Stability (Multiple Species): Human - % Remaining after 30 min w/NADPH” value came to 1.56%. In addition, the IC50 in [3] (mean), in [5] (mean), in data set [7] (mean) and in data set [10] (mean) was greater than 25000 nM each time. The EC50 in data set [4] and in data set [8] was greater than 25000 nM throughout. For the same compound, the “Liver Microsome Stability (Multiple Species): Monkey - % Remaining after 30 min w/NADPH” value in data set [6] came to 0.72%. In addition, in data set [7] (setting [11]), the “24 hr Dox Inducible IL2FLGluc 293FRT/TO: IL2/PD1” value was 1. Moreover, the “Liver Microsome Stability (Multiple Species): Rat - % Remaining after 30 min w/NADPH” value in [9] is reported as 51.2%.
As for `O=C(Nc1nc([C@H]2CCCN2c2ccccc2)cs1)c1cccn1Cc1ccc(F)cc1` [Compound C119, (R)-1-(4-fluorobenzyl)-N-(4-(1-phenylpyrrolidin-2-yl)thiazol-2-yl)-1H-pyrrole-2-carboxamide], the “Liver Microsome Stability (Multiple Species): Mouse - % Remaining after 30 min w/NADPH” value in data set [1] worked out at 42.4%. Besides, the “Liver Microsome Stability (Multiple Species): Human - % Remaining after 30 min w/NADPH” value in data set [2] is 61.3%. The IC50 was greater than 25000 nM in data set [3] (mean), 2120 nM in data set [5] (mean), 1620 nM in [7] (mean) and 1510 nM in data set [10] (mean). Also, the “24 hr Dox Inducible TNFaFLGluc 293FRT/TO: TNF/PD1” value in data set [3] (setting [11]) is greater than 11.8. The concentration giving a half-maximal response (EC50) in data set [4] and in [8] was greater than 25000 nM each time. The “Liver Microsome Stability (Multiple Species): Monkey - % Remaining after 30 min w/NADPH” value in data set [6] is reported as 23.4%. The “24 hr Dox Inducible IL2FLGluc 293FRT/TO: IL2/PD1” value in data set [7] (setting [11]) amounted to 0.76. For the same compound, in data set [9], the “Liver Microsome Stability (Multiple Species): Rat - % Remaining after 30 min w/NADPH” value is on record as 49.6%.
